Assay results from patent publication US20080064705A1, “Theophylline-based nitophenylpiperazine derivatives for enhancing aortic smooth muscle relaxation” (KAOHSIUNG MEDICAL UNIVERSITY, priority 2006, published 2008).
Entries after “also recorded” stand apart in the source; their conditions may differ.

Tests used:
[1] = system: eNOS in HUVECs; test: eNOS protein expression in HUVECs (Western blot, densitometry); format: cell-based, human; details: 0.1 μM (also 0.1 mM in source), 18 hours
Method: Human umbilical vein endothelial cells (HUVECs, American Type Culture Collection, Rockville, Md.) were cultured in F12 nutrient mixture medium supplemented with 10% FBS, 1.6 mM L-glutamine, […] endothelial cell growth supplement, 100 U/mL penicillin, […], and 10 U/mL heparin. HUVECs of passages 3-5 were used for all experiments.
Endothelial cells were processed, and eNOS protein abundance was determined by Western blot analysis using anti-eNOS antibody (BD Transduction Laboratories, San Diego, Calif.) in a manner that was similar to that described in our previous study.

[2] = system: cAMP levels in RASMCs; test: Intracellular cAMP levels in RASMCs (radioimmunoassay); format: cell-based, rat; details: Table 1; 10 μM of test agent, RASMCs, 20 minutes
Method: (§1) Rat aortic smooth muscles were obtained as sterile surgical specimens. The tissue was washed and cut into 1- to 2-mm pieces and placed into culture dishes with Dulbecco modified Eagle medium (DMEM) containing 20% fetal bovine serum (FBS), 100 U/mL penicillin G, […], and 2 mM glutamine. After these explants attached to the culture dish, usually in 1 to 2 days, DMEM supplemented with 10% FBS, penicillin, streptomycin, and glutamine was added. Rat aortic smooth muscle cells (RASMCs) migrated from the explants in 3-5 days. At this time, the explants were removed, and cells were allowed to achieve confluence. Cells were detached using 0.05% trypsin and 0.02% EDTA at 37° C. for 5 minutes to establish secondary cultures. Cultures were maintained for no more than 4 passages. To exclude contamination by endothelial cells and fibroblasts, the cell homogeneity was further confirmed by the presence of smooth muscle-specific α-actin and α-myosin. Indirect immunofluorescence staining for a variety of antigens was carried out by first plating the cells on chamber slides, fixing the cells in 3.7% formaldehyde in phosphate-buffered saline for 10 minutes, and then permeabilizing the cells with phosphate-buffered saline plus 0.1% Triton X-100. Cells were stained with a mouse monoclonal antibody directed against the amino-terminal 10 amino acids of a-smooth muscle actin and α-myosin (Boehringer Mannheim, Indianapolis, Ind.). All were stained with fluoresceinlabeled goat anti-mouse IgG antibody.
(§2) Intracellular cGMP and cAMP levels in RASMCs were described previously (Wu B N, Lin R J, Lin C Y, et al., Br J Pharmacol., 134, 265-274, 2001). In brief, cells were grown in 24-well plates (10^5 cells/well). At confluence, monolayer cells are washed with phosphate buffer solution (PBS) and then incubated with KMUP-3, KMUP-4, or other PDE inhibitors (10 or 100 μM) for 20 minutes. Incubation is terminated by the addition of 10% trichloroacetic acid (TCA). Cell suspensions are sonicated and then centrifuged at 2500 g for 15 minutes at 4° C. To remove TCA, the supernatants are extracted 3 times with 5 volumes of water-saturated diethyl ether. Then, the supernatants are lyophilized, and cGMP or cAMP of each sample is determined by using commercially available radioimmunoassay kits (Amersham Pharmacia Biotech, Buckinghamshire, England).

[3] = system: rat aortic rings; test: Relaxation of precontracted isolated rat aortic rings (isometric tension, organ bath); details: Rattus norvegicus; endothelium-intact aorta, precontracted with PE 10 μM, cumulative 1 nM-100 μM; read-out: pEC50 of vasorelaxation (converted)
Method: The aortic rings were prepared as follows. 24 Rats (200-300 g) were killed under mild anesthesia with ether, and their aortas were quickly excised.
Isometric tension was recorded with a force displacement transducer (Grass, Model FT03, Quincy, Mass.). The endothelium layer was removed mechanically by inserting the tip of a pair of forceps into the lumen and rolling the tissue back and forth several times on a paper towel moistened with physiological salt solution. At the beginning of each experiment, aortic rings were stretched to a resting tension of 1.5 g and then contracted with phenylephrine (PE, […]), and once the contractions had reached a plateau, the endothelial integrity of the preparations (abbreviated as endothelium-intact in the following) or absence of endothelium (abbreviated as E^− in the following) was verified by adding ACh ([…]) to the superfusate. […] The preparations were then washed and allowed to equilibrate with Krebs solution for 45 minutes before being contracted a second time with PE. When the stable vasoconstriction to PE (10 μM) was reached, concentration-response curves to KMUP-3 and KMUP-4 (1 nM-100 μM) were constructed. Additionally, aortic rings were preconstricted with 80 mM KCl. When the contraction reached a steady state, cumulative concentration-response curves to KMUP-3 and KMUP-4 (1 nM-100 μM) were determined. In this experiment, the high-K^+ solution was prepared by replacing NaCl with KCl (80 mM) in an equimolar amount.

[4] = system: cGMP levels in RASMCs; test: Intracellular cGMP levels in RASMCs (radioimmunoassay); format: cell-based, rat; details: Table 1; 100 μM of test agent, RASMCs, 20 minutes
Method: as §1, §2

[5] = system: PDE4; test: PDE4 enzyme inhibitory activity (method of Hidaka and Asano); format: biochemical, human; parameters: dose or concentration left out as unconfirmed; details: n=3
Method: PDE activities were determined by the method of Hidaka and Asano (Hidaka H, Asano T., Biochim Biophys Acta., 429, 485-497, 1976). Washed human platelets were used for both PDE3 and PDE5 analyses, and human U937 cells for PDE4. Purified protein containing PDE3, PDE4, or PDE5 enzyme was resuspended in 50 mM Tris-HCl containing 5 mM MgCl2 (pH 7.5). […] After 20 minutes at 37° C., the samples were heated to 100° C. for 2 minutes. Ophiophagis Hannah snake venom (10 mg/mL, […]) was then added and incubated at 37° C. for 10 minutes to convert the 5′-GMP and 5′-AMP to the uncharged nucleosides guanosine and adenosine, respectively. An ion-exchange resin ([…]) was added to bind all unconverted cGMP or cAMP. After centrifuging, the supernatant was removed for determination of radiolabeled guanosine or adenosine by a liquid scintillation counter.

SMILES	expression of eNOS protein [1]	cAMP (pmol/10^5 Cells) [2]	EC50 [3]	cGMP (fmol/10^5 cells) [4]	enzyme inhibitory activity for PDE4 [5]
OCc1ccc(-c2nn(Cc3ccccc3)c3ccccc23)o1 [YC-1, reference compound]	less potent than KMUP-3 or KMUP-4; also recorded: significantly increased				
Cc1[nH]c(=O)c(C#N)cc1-c1ccncc1 [milrinone, reference compound]		16.24 ± 1.23 pmol/10^5 Cells	457 nM	30.96 ± 2.96 fmol/10^5 Cells	
COc1ccc(C2CNC(=O)C2)cc1OC1CCCC1 (stereo not drawn) [rolipram, reference compound]		18.53 ± 1.10 pmol/10^5 Cells	407 nM	31.35 ± 2.51 fmol/10^5 Cells	
Cn1c(=O)c2[nH]cnc2n(C)c1=O [theophylline]			3550 nM		8±1.2%
CCCOc1ccccc1-c1nc2nn[nH]c2c(=O)[nH]1 [zaprinast, reference compound]		6.50 ± 0.45 pmol/10^5 Cells	112 nM	50.82 ± 3.89 fmol/10^5 Cells	
